Experimental data as given in publication PMC10705530, “Lactate Dehydrogenase Gene Family in Spirometra mansoni (Cestoda: Diphyllobothriidea)—Phylogenetic Patterns and Molecular Characteristics” (Animals : an Open Access Journal from MDPI, 2023).
Each block holds one molecule with its values, some of them ahead of it.

What was measured:
[1] = target: T1, rSmLDH (SmLDH1, lactate dehydrogenase) (Spirometra erinaceieuropaei, UniProt E3SW74); assay: LDH activity at […] nm, Lineweaver-Burk Ki (lactate oxidation; reduction Ki […], IC50 […]); assay type: biochemical
T1 construct: gene LDH; recombinant SmLDH1 (GenBank ADK62519.1, 338 aa), pQE-80L, E. coli BL21
T1 sequence (E3SW74 1-338): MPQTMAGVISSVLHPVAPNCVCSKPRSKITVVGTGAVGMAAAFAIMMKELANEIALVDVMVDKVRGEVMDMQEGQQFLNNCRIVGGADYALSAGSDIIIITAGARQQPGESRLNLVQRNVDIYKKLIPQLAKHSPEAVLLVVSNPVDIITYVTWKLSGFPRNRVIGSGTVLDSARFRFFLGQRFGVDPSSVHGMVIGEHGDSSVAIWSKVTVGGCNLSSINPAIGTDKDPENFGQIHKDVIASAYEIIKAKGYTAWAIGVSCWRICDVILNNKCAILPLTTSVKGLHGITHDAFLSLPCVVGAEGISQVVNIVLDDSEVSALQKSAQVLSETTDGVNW

[2] = target: T1, rSmLDH (SmLDH1, lactate dehydrogenase); assay: LDH activity at […] nm, Lineweaver-Burk Ki (lactate oxidation; reduction Ki […]); assay type: biochemical
[3] = target: T1, rSmLDH (SmLDH1, lactate dehydrogenase); assay: as above; assay type: biochemical; remark: listed apart in the source
[4] = target: T1, rSmLDH (SmLDH1, lactate dehydrogenase); assay: LDH activity at […] nm, Lineweaver-Burk Ki (pyruvate reduction; oxidation Ki […]); assay type: biochemical
[5] = substrate: CC(=O)C(=O)O; assay: enzyme kinetics, Km by Lineweaver-Burk plot; assay type: biochemical, Spirometra erinaceieuropaei; conditions: NADH key catalytic sites […] R, […] D and […] H (model)
[6] = substrate: CC(O)C(=O)O; assay: enzyme kinetics, Km by Lineweaver-Burk plot; assay type: biochemical, Spirometra erinaceieuropaei; conditions: NAD+
[7] = substrate: NC(=O)C1=CN([C@@H]2O[C@H](COP(=O)(O)OP(=O)(O)OC[C@H]3O[C@@H](n4cnc5c(N)ncnc54)[C@H](O)[C@@H]3O)[C@@H](O)[C@H]2O)C=CC1; assay: enzyme kinetics, Km by Lineweaver-Burk plot; assay type: biochemical, Spirometra erinaceieuropaei; conditions: varied: cofactor
[8] = substrate: NC(=O)c1ccc[n+]([C@@H]2O[C@H](COP(=O)([O-])OP(=O)(O)OC[C@H]3O[C@@H](n4cnc5c(N)ncnc54)[C@H](O)[C@@H]3O)[C@@H](O)[C@H]2O)c1; assay: enzyme kinetics, Km by Lineweaver-Burk plot; assay type: biochemical, Spirometra erinaceieuropaei; conditions: varied: cofactor

Molecule: Cc1cc2c(C(C)C)c(O)c(O)c(C=O)c2c(O)c1-c1c(C)cc2c(C(C)C)c(O)c(O)c(C=O)c2c1O [Gsp, Gossypol]
- Ki [1]: 41.7 µM

Molecule: O=C(O)c1cccnc1 [Niacin, Nicotinic Acid]
- Ki [2]: 2090 µM

- Ki [3]: 47.1 µM
Molecule: O=C(O)C(=O)O [Oxalate]

- Ki [4]: 89.4 µM
Molecule: NC(=S)c1cccnc1 [Thio, Thionicotinamide]

B1: rSmLDH (SmLDH1, lactate dehydrogenase) (Spirometra erinaceieuropaei) (protein)
chain: MPQTMAGVISSVLHPVAPNCVCSKPRSKITVVGTGAVGMAAAFAIMMKELANEIALVDVMVDKVRGEVMDMQEGQQFLNNCRIVGGADYALSAGSDIIIITAGARQQPGESRLNLVQRNVDIYKKLIPQLAKHSPEAVLLVVSNPVDIITYVTWKLSGFPRNRVIGSGTVLDSARFRFFLGQRFGVDPSSVHGMVIGEHGDSSVAIWSKVTVGGCNLSSINPAIGTDKDPENFGQIHKDVIASAYEIIKAKGYTAWAIGVSCWRICDVILNNKCAILPLTTSVKGLHGITHDAFLSLPCVVGAEGISQVVNIVLDDSEVSALQKSAQVLSETTDGVNW
notes: recombinant SmLDH1 (GenBank ADK62519.1, 338 aa), pQE-80L, E. coli BL21
- Km [5]: 4430 µM
- Km [6]: 75190 µM
- Km [7]: 490 µM
- Km [8]: 480 µM
